Results as given in ChEMBL document CHEMBL1201862, “PubChem BioAssay data set” (2004).
The source made the active and inactive calls.

Columns and labels:
[1] = biological target: Ion channel NompC (Danio rerio, UniProt Q7T1G6); test: Fluorescence counterscreen assay for TRPML3 agonists: dose response cell-based high-throughput screening assay to identify agonists of the transient receptor potential channel N1 (TRPN1). [Related pubchem assays: 1526, 1424, 1448 ]; type: functional
[2] = biological target: Mucolipin-3 (Homo sapiens, UniProt Q8TDD5); test: Dose response cell-based high-throughput screening assay for agonists of the transient receptor potential channel ML3 (TRPML3). [Related pubchem assays: 1526, 1424, 1448 ]; type: functional
[3] = cells; type: functional, cell-based
[4] = biological target: T1, Neuropeptide Y receptor type 2 (Homo sapiens, UniProt P49146); type: functional, cell-based;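 note: HEK293 cells expressing the receptor and a CNG channel; stimulus was NPY near EC95 followed by isoproterenol to raise cAMP; antagonist potency measured as restoring cAMP signal that NPY suppresses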
T1 sequence (P49146 whole entry): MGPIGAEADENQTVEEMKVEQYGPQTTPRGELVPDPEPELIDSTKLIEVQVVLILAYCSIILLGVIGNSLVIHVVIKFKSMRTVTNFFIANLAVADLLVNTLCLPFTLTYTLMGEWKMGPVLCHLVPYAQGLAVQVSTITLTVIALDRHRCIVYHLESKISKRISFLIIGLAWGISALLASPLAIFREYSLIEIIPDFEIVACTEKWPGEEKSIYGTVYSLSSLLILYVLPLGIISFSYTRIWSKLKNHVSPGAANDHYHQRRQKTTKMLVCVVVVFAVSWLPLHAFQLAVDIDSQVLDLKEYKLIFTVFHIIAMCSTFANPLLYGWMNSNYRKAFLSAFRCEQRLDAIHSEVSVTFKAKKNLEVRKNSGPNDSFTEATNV

[5] = biological target: T2, Neuropeptide Y receptor type 1 (Homo sapiens, UniProt P25929); type: functional;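 note: HEK293 cells with a CNG channel challenged with NPY then isoproterenol; potency as antagonist that reverses NPY suppression of cAMP signal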
T2 sequence (P25929 whole entry): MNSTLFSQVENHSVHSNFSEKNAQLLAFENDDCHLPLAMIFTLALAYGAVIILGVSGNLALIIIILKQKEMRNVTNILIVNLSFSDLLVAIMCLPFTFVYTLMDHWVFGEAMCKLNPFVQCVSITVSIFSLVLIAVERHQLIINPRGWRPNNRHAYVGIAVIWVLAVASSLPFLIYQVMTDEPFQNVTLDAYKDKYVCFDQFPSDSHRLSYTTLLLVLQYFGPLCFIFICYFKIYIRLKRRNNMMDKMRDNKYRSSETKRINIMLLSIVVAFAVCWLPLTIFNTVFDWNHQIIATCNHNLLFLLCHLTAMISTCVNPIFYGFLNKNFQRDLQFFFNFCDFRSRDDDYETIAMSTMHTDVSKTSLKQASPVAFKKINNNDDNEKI

[6] = cells; type: functional, cell-based; remark: listed apart in the source
[7] = biological target: Luciferin 4-monooxygenase (Photinus pyralis, UniProt P08659); test: Counter Screen for Luciferase-based Assay Positives. [Related pubchem assays: 620, 618, 411 ]
[8] = test system: HT-1080; test: HT1080 cell viability loss – fluorescence readout (AID 620); type: functional, cell-based; settings: Homo sapiens
[9] = biological target: T3, Zinc finger protein mex-5 (Caenorhabditis elegans, UniProt Q9XUB2); test: potency of MEX-5 RNA-binding blockers – biochemical, C. elegans, fluorescence polarization, dose response (AID 1960)
T3 sequence (Q9XUB2 whole entry): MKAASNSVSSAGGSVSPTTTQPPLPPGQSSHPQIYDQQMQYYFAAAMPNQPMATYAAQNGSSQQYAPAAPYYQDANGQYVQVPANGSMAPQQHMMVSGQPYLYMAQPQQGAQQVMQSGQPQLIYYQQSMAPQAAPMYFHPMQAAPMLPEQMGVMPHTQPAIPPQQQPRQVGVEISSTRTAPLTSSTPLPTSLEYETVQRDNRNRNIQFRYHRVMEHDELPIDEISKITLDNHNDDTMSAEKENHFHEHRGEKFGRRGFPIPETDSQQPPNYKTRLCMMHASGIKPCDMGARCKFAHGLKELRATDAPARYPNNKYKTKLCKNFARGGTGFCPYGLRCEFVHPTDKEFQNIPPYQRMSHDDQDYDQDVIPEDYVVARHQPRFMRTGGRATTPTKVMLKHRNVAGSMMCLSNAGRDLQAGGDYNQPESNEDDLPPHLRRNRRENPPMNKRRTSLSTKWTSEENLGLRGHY

[10] = biological target: T4, RNA-binding protein pos-1 (Caenorhabditis elegans, UniProt G5EF15); test: disruptors of C. elegans POS-1 RNA interaction – biochemical, fluorescence polarization, dose response (AID 1964);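 note: purified POS-1 fused to maltose binding protein made in E. coli; potency of compounds blocking POS-1 binding to fluorescent RNA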
T4 sequence (G5EF15 whole entry): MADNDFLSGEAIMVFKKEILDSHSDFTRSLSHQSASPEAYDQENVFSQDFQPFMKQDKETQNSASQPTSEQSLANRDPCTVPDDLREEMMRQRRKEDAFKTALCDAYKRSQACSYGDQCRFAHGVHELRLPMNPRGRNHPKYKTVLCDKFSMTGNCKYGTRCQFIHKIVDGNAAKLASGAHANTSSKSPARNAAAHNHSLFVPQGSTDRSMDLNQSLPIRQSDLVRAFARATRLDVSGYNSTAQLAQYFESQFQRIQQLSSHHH

[11] = biological target: T5, Corticotropin-releasing factor receptor 2/Corticotropin-releasing factor-binding protein (Homo sapiens, UniProt P24387+Q13324); test: activators of CRF receptor 2 with binding protein – uHTS hits, confirmation (AID 602473); type: functional; settings: read-out: EC50_Mean
T5 sequence (Q13324 whole entry): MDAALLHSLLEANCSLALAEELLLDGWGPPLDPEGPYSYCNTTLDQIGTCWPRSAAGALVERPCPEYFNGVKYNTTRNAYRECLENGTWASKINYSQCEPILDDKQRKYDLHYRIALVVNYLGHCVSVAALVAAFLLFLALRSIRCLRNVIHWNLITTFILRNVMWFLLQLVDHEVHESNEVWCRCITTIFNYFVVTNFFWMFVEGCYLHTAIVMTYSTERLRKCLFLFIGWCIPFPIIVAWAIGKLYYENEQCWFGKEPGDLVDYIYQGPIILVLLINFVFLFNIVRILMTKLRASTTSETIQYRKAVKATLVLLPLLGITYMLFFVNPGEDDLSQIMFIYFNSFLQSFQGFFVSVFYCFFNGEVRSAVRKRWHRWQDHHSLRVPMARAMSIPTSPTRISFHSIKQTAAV
T5 sequence (P24387 whole entry): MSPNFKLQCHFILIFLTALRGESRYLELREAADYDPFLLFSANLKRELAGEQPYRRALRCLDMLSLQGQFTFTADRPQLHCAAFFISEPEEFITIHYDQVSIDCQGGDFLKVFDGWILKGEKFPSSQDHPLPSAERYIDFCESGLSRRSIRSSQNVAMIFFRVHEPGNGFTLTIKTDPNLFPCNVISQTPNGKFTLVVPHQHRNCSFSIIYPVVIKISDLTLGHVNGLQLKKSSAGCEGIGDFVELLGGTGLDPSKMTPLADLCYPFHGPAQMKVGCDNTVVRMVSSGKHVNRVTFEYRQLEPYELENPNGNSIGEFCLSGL

Ion channel NompC, sequence (Q7T1G6 whole entry): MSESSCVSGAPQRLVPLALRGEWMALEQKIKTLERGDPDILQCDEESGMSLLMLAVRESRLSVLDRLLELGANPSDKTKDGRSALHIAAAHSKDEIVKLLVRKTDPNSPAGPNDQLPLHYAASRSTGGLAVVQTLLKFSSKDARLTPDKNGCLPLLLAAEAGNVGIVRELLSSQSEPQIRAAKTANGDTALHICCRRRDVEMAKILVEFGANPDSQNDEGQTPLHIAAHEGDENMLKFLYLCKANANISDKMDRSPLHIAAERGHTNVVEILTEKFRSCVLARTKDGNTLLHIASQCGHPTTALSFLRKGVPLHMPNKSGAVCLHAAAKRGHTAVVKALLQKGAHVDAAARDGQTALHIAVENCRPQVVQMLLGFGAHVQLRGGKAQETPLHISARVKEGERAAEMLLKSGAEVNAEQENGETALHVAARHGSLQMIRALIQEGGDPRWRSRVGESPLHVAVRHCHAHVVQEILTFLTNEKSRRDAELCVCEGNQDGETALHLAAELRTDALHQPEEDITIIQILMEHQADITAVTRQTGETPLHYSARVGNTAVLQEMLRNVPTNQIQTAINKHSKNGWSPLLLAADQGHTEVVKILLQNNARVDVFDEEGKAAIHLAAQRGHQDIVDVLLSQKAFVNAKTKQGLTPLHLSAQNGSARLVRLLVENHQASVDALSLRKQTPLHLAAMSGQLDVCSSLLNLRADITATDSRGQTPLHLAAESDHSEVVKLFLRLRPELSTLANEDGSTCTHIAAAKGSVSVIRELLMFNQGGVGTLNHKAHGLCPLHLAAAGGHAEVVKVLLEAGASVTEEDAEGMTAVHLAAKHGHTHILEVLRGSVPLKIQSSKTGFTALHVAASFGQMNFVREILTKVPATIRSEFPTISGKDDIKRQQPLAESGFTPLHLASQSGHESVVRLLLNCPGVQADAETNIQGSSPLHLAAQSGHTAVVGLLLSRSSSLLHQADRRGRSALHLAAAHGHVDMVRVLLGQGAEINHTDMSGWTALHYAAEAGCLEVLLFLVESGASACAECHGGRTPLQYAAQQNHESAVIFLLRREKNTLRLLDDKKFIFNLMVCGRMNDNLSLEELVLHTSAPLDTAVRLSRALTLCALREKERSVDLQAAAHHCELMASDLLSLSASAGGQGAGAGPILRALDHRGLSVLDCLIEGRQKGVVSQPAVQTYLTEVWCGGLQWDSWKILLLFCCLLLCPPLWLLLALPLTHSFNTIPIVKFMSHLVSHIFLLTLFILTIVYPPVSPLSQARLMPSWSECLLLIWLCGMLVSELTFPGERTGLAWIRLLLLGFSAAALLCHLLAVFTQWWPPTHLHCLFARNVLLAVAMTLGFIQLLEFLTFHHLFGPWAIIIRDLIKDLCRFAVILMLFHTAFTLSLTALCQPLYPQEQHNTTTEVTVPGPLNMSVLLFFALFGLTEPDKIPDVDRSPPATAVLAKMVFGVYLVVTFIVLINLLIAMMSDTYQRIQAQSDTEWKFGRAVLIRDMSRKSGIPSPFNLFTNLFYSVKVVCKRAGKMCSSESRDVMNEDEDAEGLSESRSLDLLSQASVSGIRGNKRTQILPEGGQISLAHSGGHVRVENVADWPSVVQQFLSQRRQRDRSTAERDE
Mucolipin-3, sequence (Q8TDD5 whole entry): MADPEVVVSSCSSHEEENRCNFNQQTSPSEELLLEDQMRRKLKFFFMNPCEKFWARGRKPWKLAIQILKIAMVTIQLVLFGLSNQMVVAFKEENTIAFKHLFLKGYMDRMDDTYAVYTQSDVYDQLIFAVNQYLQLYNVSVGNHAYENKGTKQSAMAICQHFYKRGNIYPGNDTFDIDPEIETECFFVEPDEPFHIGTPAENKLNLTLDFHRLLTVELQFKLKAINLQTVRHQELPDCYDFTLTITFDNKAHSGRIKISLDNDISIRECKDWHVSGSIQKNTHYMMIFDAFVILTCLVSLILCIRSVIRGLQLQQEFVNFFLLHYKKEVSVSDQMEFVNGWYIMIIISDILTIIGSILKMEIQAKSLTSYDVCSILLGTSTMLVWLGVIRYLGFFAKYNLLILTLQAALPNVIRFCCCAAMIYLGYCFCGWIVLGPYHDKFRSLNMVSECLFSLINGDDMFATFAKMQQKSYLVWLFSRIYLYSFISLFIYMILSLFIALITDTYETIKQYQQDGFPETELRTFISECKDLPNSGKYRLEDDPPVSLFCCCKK
Luciferin 4-monooxygenase, sequence (P08659 whole entry): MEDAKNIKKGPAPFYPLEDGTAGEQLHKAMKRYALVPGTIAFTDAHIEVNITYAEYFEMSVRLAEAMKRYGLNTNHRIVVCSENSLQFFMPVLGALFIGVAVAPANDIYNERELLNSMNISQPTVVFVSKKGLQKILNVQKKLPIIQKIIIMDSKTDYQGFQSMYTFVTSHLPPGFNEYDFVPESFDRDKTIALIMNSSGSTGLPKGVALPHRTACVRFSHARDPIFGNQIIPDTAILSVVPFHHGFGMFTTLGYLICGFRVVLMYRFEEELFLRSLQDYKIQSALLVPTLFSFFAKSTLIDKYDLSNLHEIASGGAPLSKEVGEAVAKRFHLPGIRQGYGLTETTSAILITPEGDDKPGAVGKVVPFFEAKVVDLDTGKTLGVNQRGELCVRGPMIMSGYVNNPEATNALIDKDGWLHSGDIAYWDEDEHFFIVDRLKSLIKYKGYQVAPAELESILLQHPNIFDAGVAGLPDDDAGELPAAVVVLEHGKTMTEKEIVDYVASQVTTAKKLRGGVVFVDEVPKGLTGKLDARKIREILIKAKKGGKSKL

| Compound | EC50 [1] | EC50 [2] | IC50 [4] | IC50 [5] | further results |
| --- | --- | --- | --- | --- | --- |
| CC(C)[C@H](NS(=O)(=O)c1ccccc1)C(=O)OCC(=O)Nc1ccccc1Sc1ccccc1 | > 29.9 µM (not active) | 3.96 µM (active) | – | – | – |
| CCCCCCCCCS(=O)(=O)N/N=C/c1cccc([N+](=O)[O-])c1 | – | – | > 35 µM (not active) | > 35 µM (not active) | EC50 [3]: 23.7 µM (active); EC50 [6]: > 350 µM (not active) |
| COc1ccc(S(=O)(=O)N2CCN(C(=O)CCC3CCCC3)CC2)cc1 | – | – | – | – | EC50 [7]: 2.3 µM (active); EC50 [8]: > 50 µM (not active) |
| O=C1C2CC=C(Cl)CC2C(=O)N1CC1Cc2ccccc2CO1 (stereo not given) | – | – | 5.72 µM (active) | 7.82 µM (active) | EC50 [9]: 22 µM (active); EC50 [10]: 23 µM (active) |
| COc1ccc(C(=O)CSc2nnn(-c3cccc(NC(C)=O)c3)n2)cc1 | 9.35 µM (active) | 17.3 µM (not active) | – | – | EC50 [11]: 4.96 µM (active) |
